For series [1], the system named is Vaccinia virus. As to conditions: 1 h.
Series [2] has as its system HeLa or Vero cells. The note with it: ref Akkarawongsa et al., 2006; cited from earlier work.
Series [3] concerns HeLa cells. As to conditions: concentrations as high as 100 μM; ref Akkarawongsa et al., 2006; cited from earlier work.
In series [4] the test system is recombinant vaccinia virus vMJ343. The note with it: 1 h.
The test system of series [5] is mouse corneas. The note with it: applied at a concentration of 6.1 mM; ref Akkarawongsa et al., 2006; cited from earlier work.
For series [6], the system named is Vero cells. The note with it: concentrations as high as 100 μM; ref Akkarawongsa et al., 2006; cited from earlier work.
Series [7] relates to vMJ343. The note with it: 1 h.
Series [8] concerns HeLa cells. The experiment in a line: Cytotoxicity after low pH wash. As to conditions: PBS pH 7 or 5, 150 μM EB 1 hr 37°C, n = 6. It counts as cell-based.

The source of these data is article PMC2923446 (Virology, 2009).

No end group written: not given here.

For “RRKKLAALPLVLAAPLAVLA [EBX, reference compound]”, the EC50 (usually the concentration needed to bring the measured effect to its halfway point) in series [1] stood at 150 µM. The “CC50 (50% cytotoxic concentration)” value in series [2] is above 100 µM.
In the case of RRKKAAVALLPAVLLALLAP [EB], the “Cytotoxicity to HeLa cells” value in series [3] is on record as “not cytotoxic”. The EC50 is 45 µM in series [4], 15 µM in series [1] and around 45 µM in series [7]. The “Cytotoxic effects on mouse corneas” value in series [5] is “no cytotoxic effects”. In addition, the “Cytotoxicity to Vero cells” value in series [6] is “not cytotoxic”. In addition, the “CC50 (50% cytotoxic concentration)” value in series [2] was above 100 µM. Moreover, in series [8], the “Toxicity of low pH treatment and subsequent EB exposure” value is “not toxic to the cells”.
